Experimental data as given in ChEMBL document CHEMBL1157485, “Studies on the structure-activity relationship of bicifadine analogs as monoamine transporter inhibitors” (Bioorg Med Chem Lett, 2008).
The source made the active and inactive calls. The calls are words filed in the database; no cut-off is given here.

How the values were obtained:
Transporter = Transporter (Rattus norvegicus, UniProt Q63380); test: Inhibition of norepinephrine uptake at NET in rat brain synaptosome; assay type: tissue-based
Transporter, sequence (Q63380 whole entry): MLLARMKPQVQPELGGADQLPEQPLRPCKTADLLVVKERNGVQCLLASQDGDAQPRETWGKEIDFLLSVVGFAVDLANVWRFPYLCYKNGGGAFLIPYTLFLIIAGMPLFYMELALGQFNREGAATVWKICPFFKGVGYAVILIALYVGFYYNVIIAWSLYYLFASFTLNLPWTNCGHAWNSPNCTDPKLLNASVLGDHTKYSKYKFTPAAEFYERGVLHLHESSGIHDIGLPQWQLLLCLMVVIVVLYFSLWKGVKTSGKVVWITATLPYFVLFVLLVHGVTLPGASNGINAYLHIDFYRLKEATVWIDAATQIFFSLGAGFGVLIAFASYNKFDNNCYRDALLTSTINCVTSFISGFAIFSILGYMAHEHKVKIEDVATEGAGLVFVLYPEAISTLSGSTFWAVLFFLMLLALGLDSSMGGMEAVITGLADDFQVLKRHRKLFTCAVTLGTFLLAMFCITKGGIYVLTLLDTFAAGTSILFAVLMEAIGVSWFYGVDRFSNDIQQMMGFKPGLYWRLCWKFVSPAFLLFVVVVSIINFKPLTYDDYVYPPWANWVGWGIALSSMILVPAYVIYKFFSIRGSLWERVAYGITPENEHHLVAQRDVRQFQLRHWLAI

[1] = target: Sodium-dependent serotonin transporter (Rattus norvegicus, UniProt P31652); test: Inhibition of serotonin uptake at SERT in rat brain synaptosome; assay type: tissue-based
Sodium-dependent serotonin transporter, sequence (P31652 whole entry): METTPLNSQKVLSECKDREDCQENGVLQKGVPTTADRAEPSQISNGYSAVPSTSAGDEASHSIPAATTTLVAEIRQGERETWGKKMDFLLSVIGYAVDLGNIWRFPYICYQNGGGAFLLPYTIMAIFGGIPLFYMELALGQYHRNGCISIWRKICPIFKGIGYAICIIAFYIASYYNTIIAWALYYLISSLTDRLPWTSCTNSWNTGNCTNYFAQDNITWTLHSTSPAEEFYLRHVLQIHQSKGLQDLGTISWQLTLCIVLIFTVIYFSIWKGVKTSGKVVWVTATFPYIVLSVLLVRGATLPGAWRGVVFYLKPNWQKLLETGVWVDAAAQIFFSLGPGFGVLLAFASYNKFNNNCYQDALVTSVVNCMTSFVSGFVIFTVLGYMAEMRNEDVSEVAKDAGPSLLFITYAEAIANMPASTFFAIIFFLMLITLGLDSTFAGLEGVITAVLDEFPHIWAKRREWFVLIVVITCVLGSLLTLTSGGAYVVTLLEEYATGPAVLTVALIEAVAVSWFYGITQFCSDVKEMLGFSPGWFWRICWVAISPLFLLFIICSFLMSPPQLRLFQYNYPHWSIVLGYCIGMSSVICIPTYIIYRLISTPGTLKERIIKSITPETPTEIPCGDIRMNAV

[2] = target: Sodium-dependent dopamine transporter (Rattus norvegicus, UniProt P23977); test: Inhibition of dopamine uptake at cloned DAT in rat brain synaptosome; assay type: tissue-based
Sodium-dependent dopamine transporter, sequence (P23977 whole entry): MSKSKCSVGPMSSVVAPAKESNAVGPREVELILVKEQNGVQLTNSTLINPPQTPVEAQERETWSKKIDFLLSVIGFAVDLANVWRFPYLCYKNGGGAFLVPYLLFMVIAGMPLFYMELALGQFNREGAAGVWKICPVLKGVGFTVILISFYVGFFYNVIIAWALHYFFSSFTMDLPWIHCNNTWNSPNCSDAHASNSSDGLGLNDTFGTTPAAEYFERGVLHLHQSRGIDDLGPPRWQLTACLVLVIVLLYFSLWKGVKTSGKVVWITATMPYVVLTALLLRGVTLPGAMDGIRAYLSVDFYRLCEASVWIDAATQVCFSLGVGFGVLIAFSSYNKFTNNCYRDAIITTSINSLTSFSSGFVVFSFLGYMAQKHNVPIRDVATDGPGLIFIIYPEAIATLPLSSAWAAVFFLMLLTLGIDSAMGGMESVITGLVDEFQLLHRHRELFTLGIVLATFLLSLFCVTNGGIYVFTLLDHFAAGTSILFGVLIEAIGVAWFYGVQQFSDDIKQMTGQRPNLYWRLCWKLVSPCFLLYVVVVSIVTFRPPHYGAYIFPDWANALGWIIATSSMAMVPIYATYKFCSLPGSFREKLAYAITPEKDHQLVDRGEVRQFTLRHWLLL

[3] = Apparent permeability across human CaCo2 cells; assay type: ADME, cell-based; conditions: Caco-2
[4] = Efflux ratio in human CaCo2 cells; assay type: ADME, cell-based; conditions: Caco-2
Mus musculus [5] = test: Antinociceptive activity in formalin-treated mouse model of persistent pain assessed as reduction in number of hind paws flinches at 30 mg/kg; assay type: functional; design: scale not given: the % may be the effect or the level left
Mus musculus [6] = test: Antinociceptive activity in formalin-treated mouse model of persistent pain assessed as reduction in licking time at 60 mg/kg; assay type: functional

Compound | IC50 (Transporter) | IC50 [1] | IC50 [2] | Papp [3] | efflux ratio [4] | Activity (Mus musculus [5]) | Activity (Mus musculus [6])
c1cc2c(cc1C13CNCC1C3)OCO2 (stereo not given) | 3500 nM | 1500 nM | > 10000 nM | – | – | – | –
C[C@H]1NC[C@@]2(c3cccs3)C[C@@H]12 (relative stereo) | 320 nM | 7600 nM | 3400 nM | – | – | – | –
c1ccc2c(C34CNCC3C4)csc2c1 (stereo not given) | 220 nM | 73 nM | 780 nM | – | – | – | –
FC(F)(F)c1ccc(C23CNCC2C3)s1 (stereo not given) | 3100 nM | 190 nM | > 10000 nM | – | – | – | –
C[C@@H]1[C@H]2CNC[C@@]12c1ccc(Cl)c(Cl)c1 (relative stereo) | 29 nM | 190 nM | 400 nM | – | – | – | –
C[C@H]1NC[C@@H]2C[C@@]21c1cccs1 (relative stereo) | 150 nM | 5800 nM | 8900 nM | – | – | – | –
c1ccc([C@@H]2[C@H]3CNC[C@]32c2ccccc2)cc1 | 120 nM | 240 nM | 8700 nM | – | – | – | –
Clc1cc(Cl)c(C23CNCC2C3)s1 (stereo not given) | 5300 nM | 4200 nM | > 10000 nM | – | – | – | –
Clc1ccc([C@]23CNC[C@H]2C3)s1 | 77 nM | 81 nM | 1500 nM | – | – | – | –
C[C@@H]1NC[C@@]2(c3cccs3)C[C@@H]12 (relative stereo) | 560 nM | 6000 nM | 9500 nM | – | – | – | –
c1csc([C@]23CNC[C@H]2C3)c1 | 92 nM | 1900 nM | 2400 nM | 17.6 ×10⁻⁶ cm/s | 0.7 | 40% | –
CC1(C)C2CNCC21c1ccccc1 (stereo not given) | 7200 nM | 1800 nM | > 10000 nM | – | – | – | –
CCOc1ccccc1O[C@@H](c1ccccc1)[C@@H]1CNCCO1 | – | – | – | – | – | – | inactive
Fc1ccc([C@]23CNC[C@H]2C3)s1 | 470 nM | 8100 nM | > 10000 nM | – | – | – | –
Fc1ccc2sc([C@]34CNC[C@H]3C4)cc2c1 | 67 nM | 33 nM | 420 nM | – | – | – | –
c1ccc(C23CNCC2C3)cc1 (stereo not given) | 350 nM | 5200 nM | 2700 nM | – | – | – | –
c1cc([C@@]23CNC[C@@H]2C3)cs1 | 300 nM | 6800 nM | 8200 nM | – | – | – | –
c1ccc2cc(C34CNCC3C4)ccc2c1 (stereo not given) | 36 nM | 50 nM | 190 nM | – | – | – | –
c1csc(C23CNCC2C3)c1 (stereo not given) | 130 nM | 4500 nM | 7500 nM | – | – | – | –

Compound | IC50 (Transporter) | IC50 [1] | IC50 [2] | Papp [3] | efflux ratio [4] | Activity (Mus musculus [5]) | Activity (Mus musculus [6])
c1ccc2sc(C34CNCC3C4)cc2c1 (stereo not given) | 53 nM | 71 nM | 180 nM | – | – | – | –
c1csc([C@@]23CNC[C@@H]2C3)c1 | 150 nM | 4900 nM | 6200 nM | – | – | – | –
CN1CC2CC2(c2cccs2)C1 (stereo not given) | 1600 nM | 6300 nM | > 10000 nM | – | – | – | –
c1ccc(-c2ccc(C34CNCC3C4)cc2)cc1 (stereo not given) | 360 nM | 160 nM | 2300 nM | – | – | – | –
c1cnc2ccc(C34CNCC3C4)cc2c1 (stereo not given) | 1400 nM | 640 nM | 3900 nM | – | – | – | –
Clc1ccc([C@@]23CNC[C@@H]2C3)s1 | 590 nM | 1300 nM | 2500 nM | – | – | – | –
Brc1ccc([C@@]23CNC[C@@H]2C3)s1 | 340 nM | 380 nM | 8200 nM | – | – | – | –
Cc1ccc(C23CNCC2C3)cc1 (stereo not given) [BICIFADINE] | – | – | – | – | – | – | 89%
c1ccc2oc(C34CNCC3C4)cc2c1 (stereo not given) | 48 nM | 140 nM | 330 nM | – | – | – | –
Clc1ccc(C23CNCC2C3)s1 (stereo not given) | 130 nM | 190 nM | 3300 nM | – | – | – | –
Brc1ccc(C23CNCC2C3)s1 (stereo not given) | 190 nM | 140 nM | 2400 nM | – | – | – | –
c1cc2c(cc1[C@@]13CNC[C@@H]1C3)CCO2 | 4800 nM | 610 nM | 9100 nM | – | – | – | –
c1cc2c(cc1[C@@]13CNC[C@@H]1C3)CCC2 | 2000 nM | 97 nM | > 10000 nM | – | – | – | –
Cc1csc(C23CNCC2C3)c1 (stereo not given) | 6800 nM | > 10000 nM | > 10000 nM | – | – | – | –
FC12CNCC1(c1ccccc1)C2 (stereo not given) | 1800 nM | 2900 nM | > 10000 nM | – | – | – | –
C[C@H]1[C@H]2CNC[C@]21c1ccc(Cl)c(Cl)c1 (relative stereo) | 500 nM | 200 nM | 500 nM | – | – | – | –
O=C1NCC2CC12c1cccs1 (stereo not given) | > 10000 nM | > 10000 nM | > 10000 nM | – | – | – | –
Clc1ccc([C@@]23CNC[C@@H]2[C@H]3c2ccccc2)cc1Cl (relative stereo) | 34 nM | 350 nM | 360 nM | – | – | – | –
